Eight molecules from ChEMBL document CHEMBL4828754, “Salicinoyl Quinic Acids and Their Prostaglandin E2 Production Inhibitory Activities from the Fruits of Casearia grewiifolia” (J Nat Prod, 2021) can be followed below.

SMILES strings stand for the structures. The source made the active and inactive calls. No cut-off for these calls is given here.

The IC50 is the concentration that gives 50% inhibition.

For the first experiment, the system named is HaCaT. The experiment is described as follows: Inhibition of ultraviolet B-irradiation upregulated of prostaglandin E2 production in human HaCaT cells at 10 uM measured after 2 hrs by ELISA relative to control.
Details: not given
The experiment is classed as functional, cell-based. A general note: In an ELISA, binding on a coated surface is turned into a signal by an enzyme label.
As for `OCc1ccccc1O[C@@H]1O[C@H](CO)[C@@H](O)[C@H](O)[C@H]1O`, the inhibition entry was “inactive”. Same read-out and setting: in the case of `CC(=O)O[C@@H]1C[C@](O)(C(=O)OCc2ccccc2O[C@@H]2O[C@H](CO)[C@@H](O)[C@H](O)[C@H]2O)C[C@@H](O)[C@H]1OC(=O)/C=C/c1ccccc1` it was “Active”. Same read-out and setting: in the case of `COC(=O)[C@]1(O)C[C@@H](O)[C@@H](OC(=O)c2ccccc2)[C@H](O[C@@H]2O[C@@H](C)[C@H](O)[C@@H](O)[C@H]2O)C1` it was “Active”; in that of `CC(=O)O[C@@H]1[C@H](OC(C)=O)C[C@@](OC(=O)/C=C/c2ccccc2)(C(=O)OCc2ccccc2O[C@@H]2O[C@H](CO)[C@@H](O)[C@H](O)[C@H]2O)C[C@H]1O[C@@H]1O[C@H](CO)[C@@H](O)[C@H](O)[C@H]1O`, “Active”.

Tested on in another experiment: not listed separately
The experiment is described as follows: Inhibition of ultraviolet B-irradiation upregulated of prostaglandin E2 production in human HaCaT cells measured after 2 hrs by ELISA. The settings on record: light or radiation study. Format: functional, cell-based.
`CC(=O)O[C@@H]1C[C@](O)(C(=O)OCc2ccccc2O[C@@H]2O[C@H](CO)[C@@H](O)[C@H](O)[C@H]2O)C[C@@H](OC(C)=O)[C@H]1OC(=O)/C=C/c1ccccc1` yielded an IC50 of 20.5 µM. This lies in the double-digit micromolar range. As for `Oc1ccc(/C=C/c2cc(O)cc(O)c2)cc1` [RESVERATROL], the IC50 stood at 35.1 µM. Against the preceding molecule, the IC50 is about 1.7-fold higher. Still for that read-out and setting: then `CC(=O)Oc1ccccc1C(=O)O` [ASPIRIN], with 30.4 µM; and `COC(=O)[C@]1(O)C[C@@H](O)[C@@H](OC(=O)/C=C/c2ccccc2)[C@H](O)C1`, with 28.8 µM.
